For data set [1], the system named is T67. In words: Neuroprotective effect in human T67 cells assessed as inhibition of TBH-induced ROS formation at 10 uM after 30 mins by DCFH-DA fluorescent probe-based spectrofluorimetric analysis. The class given is functional, cell-based.
The next data set concerns the target Beta-secretase 1 (Homo sapiens, UniProt P56817). Kind of data set: Inhibition of human recombinant BACE1 using M-2420 as substrate preincubated for 1 hr followed by substrate addition incubated for 15 mins by FRET assay.
A short description of data set [2]: Cytotoxicity against human T67 cells at 10 uM after 24 hrs by MTT assay. The data set is classed as cell-based. Particulars: t67, 24 h.
The nature of data set [3]: Permeability of the compound by PAMPA-BBB assay. The data set is classed as ADME. The note with it: read-out: permeability. For orientation: The PAMPA barrier holds no transporters, so it reflects passive diffusion.
Data set [4] is described as follows: Cytotoxicity against human T67 cells up to 20 uM after 24 hrs by MTT assay. The data set is classed as cell-based. Particulars: t67, 24 h.
The target of data set [5] is Glycogen synthase kinase-3 beta (Homo sapiens, UniProt P49841). Kind of data set: Inhibition of human recombinant GSK3-beta using prephosphorylated polypeptide as substrate incubated for 30 mins by Glo-type luminescence assay.
Sequence of Glycogen synthase kinase-3 beta (P49841 whole entry): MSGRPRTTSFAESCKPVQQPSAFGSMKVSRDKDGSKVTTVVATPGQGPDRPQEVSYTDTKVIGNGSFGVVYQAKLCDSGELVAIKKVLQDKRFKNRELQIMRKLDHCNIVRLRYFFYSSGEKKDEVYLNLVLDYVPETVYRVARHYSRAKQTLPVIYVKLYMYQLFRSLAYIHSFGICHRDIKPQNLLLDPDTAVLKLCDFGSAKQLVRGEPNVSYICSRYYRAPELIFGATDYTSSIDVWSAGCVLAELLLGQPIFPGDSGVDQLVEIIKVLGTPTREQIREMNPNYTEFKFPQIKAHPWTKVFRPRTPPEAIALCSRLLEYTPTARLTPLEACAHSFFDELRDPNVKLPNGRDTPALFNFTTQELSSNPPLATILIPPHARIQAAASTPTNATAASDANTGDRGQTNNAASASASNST
The test system of data set [6] is T67. In words: Neuroprotective effect in human T67 cells assessed as increase in NQO1 activity using DCIP as substrate. The class given is functional, cell-based.
Data set [7] in a line: Chemical stability of the compound in phosphate and borate buffer at pH 7.4 and 9.2 incubated for 3 days by RP-HPLC analysis. The data set is classed as physicochemical. The note with it: pH 7.4, 72 h.
Data set [8] is described as follows: Chemical stability of the compound in phosphate and borate buffer assessed as formation of degradation product at pH 7.4 and 9.2 incubated for 3 days by RP-HPLC analysis. The data set is classed as physicochemical. Particulars: pH 7.4, 72 h.
Data set [9] is described as follows: Cytotoxicity against human T67 cells at 20 uM after 24 hrs by MTT assay. Particulars: t67, 24 h. The class given is cell-based. A general note: Tetrazolium assays rely on reduction of a dye to a coloured formazan, in cell work by metabolically active cells.

Activity calls are given as the source filed them. The calls are words filed in the database; no cut-off is given here. A value given as a limit tells only on which side of the number the result lay.

Sequence of Beta-secretase 1 (P56817 whole entry): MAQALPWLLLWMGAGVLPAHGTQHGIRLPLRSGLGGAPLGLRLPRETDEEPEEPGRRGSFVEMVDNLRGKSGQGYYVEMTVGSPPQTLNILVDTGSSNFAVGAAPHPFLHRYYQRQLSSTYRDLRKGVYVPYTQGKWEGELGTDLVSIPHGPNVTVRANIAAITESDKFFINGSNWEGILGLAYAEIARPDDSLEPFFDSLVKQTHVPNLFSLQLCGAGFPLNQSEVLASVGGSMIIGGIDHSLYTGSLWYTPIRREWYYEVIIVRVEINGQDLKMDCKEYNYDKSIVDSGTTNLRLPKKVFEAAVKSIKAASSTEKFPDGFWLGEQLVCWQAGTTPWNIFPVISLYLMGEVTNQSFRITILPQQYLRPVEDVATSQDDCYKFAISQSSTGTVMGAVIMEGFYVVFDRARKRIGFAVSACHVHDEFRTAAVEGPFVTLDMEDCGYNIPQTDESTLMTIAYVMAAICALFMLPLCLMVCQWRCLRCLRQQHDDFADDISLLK

As a reminder, the IC50 is the concentration that gives 50% inhibition. Take `COc1ccc(/C=C/C(=O)/C=C(O)/C=C/c2ccc(OCc3ccccc3)cc2)cc1`: in the data set with T67 [1], the result was inactive. Also, the IC50 stood at 2280 nM on Beta-secretase 1 and 2780 nM in data set [5]. Further, the Activity result in data set [2] and in data set [4] was “Non-toxic” in each case. Besides, the Papp in [3] came to 7 ×10⁻⁶ cm/s. Moreover, the outcome with T67 [6] was Active.
As to `O=C(/C=C(O)/C=C/c1ccc(OCc2ccc(F)cc2F)cc1)/C=C/c1ccc(OCc2ccc(F)cc2F)cc1`, the values for the IC50 (at Beta-secretase 1; in data set [5]) were 400 nM and 9630 nM, respectively.
As to `O=C(/C=C(O)/C=C/c1ccc(OCc2ccccc2)cc1)/C=C/c1ccc(O)cc1`, the outcome in the data set with T67 [1] was inactive. Besides, the figures for the IC50 (at Beta-secretase 1; in data set [5]) were 2690 nM and 2010 nM, respectively. The Activity result in data set [4] is on record as “Toxic”. The result with T67 [6] was Active.
For `COc1ccc(/C=C/C(=O)/C=C(O)/C=C/c2ccc(OC)cc2)cc1`, the result in the data set with T67 [1] was inactive. Further, the IC50 was found to be 1650 nM on Beta-secretase 1 and 530 nM in data set [5]. For the same molecule, in [2], the Activity entry is “Non-toxic”. Besides, the Papp in data set [3] turned out to be 2.8 ×10⁻⁶ cm/s. The outcome with T67 [6] was Active. For the same molecule, in data set [7], the Stability entry is “Stable”.
With `COc1cc(/C=C/C(O)=C/C(=O)/C=C/c2ccc(OCc3ccccc3)cc2)ccc1O`, the outcome in the data set on T67 [1] and in the data set with T67 [6] was Active. Moreover, the half-inhibitory concentration (IC50) amounted to 970 nM at Beta-secretase 1 and 900 nM in [5]. For the same molecule, the Papp in data set [3] is 7.7 ×10⁻⁶ cm/s. Also, the Activity result in [4] is recorded as “Non-toxic”.
In the case of `O=C(/C=C(O)/C=C/c1ccc(OCc2ccc(F)cc2)cc1)/C=C/c1ccc(OCc2ccc(F)cc2)cc1`, the values for the IC50 (on Beta-secretase 1; in [5]) were 1040 nM and 12800 nM, respectively.
Turning to `COc1cc(/C=C/C(=O)CC(=O)/C=C/c2ccc(O)c(OC)c2)ccc1O` [CURCUMIN], in data set [3], the Papp turned out to be 2.5 ×10⁻⁶ cm/s. The Activity entry in data set [4] is “Non-toxic”. In addition, the IC50 in data set [5] was determined as 17900 nM. In the data set with T67 [6], the result was Active.
Consider `COc1ccc(/C=C/C(=O)CC(=O)/C=C/c2ccc(OC)cc2)cc1`, for which the results for the IC50 (on Beta-secretase 1; in [5]) were over 5000 nM and 15300 nM, respectively. The Stability result in [8] is “Unstable”.
As for `O=C(/C=C(O)/C=C/c1ccc(OCc2cc(F)cc(F)c2)cc1)/C=C/c1ccc(OCc2cc(F)cc(F)c2)cc1`, the IC50 came out at 390 nM on Beta-secretase 1 and 8300 nM in data set [5].
For the molecule `O=C(/C=C/c1ccc(OCc2cc(F)cc(F)c2)cc1)CC(=O)/C=C/c1ccc(OCc2cc(F)cc(F)c2)cc1`, the IC50 on Beta-secretase 1 came out at 730 nM; in data set [5], 9660 nM.
Turning to `O=C(/C=C(O)/C=C/c1ccc(OCc2cccc(F)c2)cc1)/C=C/c1ccc(OCc2cccc(F)c2)cc1`, the values for the IC50 (at Beta-secretase 1; in data set [5]) were 1080 nM and 17000 nM, respectively.
In the case of `O=C(/C=C(O)/C=C/c1ccc(OCc2ccccc2)cc1)/C=C/c1ccc(OCc2ccccc2)cc1`, the result in the data set on T67 [1] and in the data set on T67 [6] was Active. Further, the IC50 came to 40 nM on Beta-secretase 1 and 2490 nM in data set [5]. In data set [3], the Papp came out at 3.6 ×10⁻⁶ cm/s. Moreover, in data set [4], the Activity result is recorded as “Non-toxic”.
With `O=C(/C=C/c1ccc(OCc2ccc(F)cc2F)cc1)CC(=O)/C=C/c1ccc(OCc2ccc(F)cc2F)cc1`, the half-inhibitory concentration (IC50) on Beta-secretase 1 is 1000 nM; in data set [5], 9060 nM.
Turning to `O=C(/C=C(O)/C=C/c1ccc(O)cc1)/C=C/c1ccc(O)cc1`, in the data set on T67 [1], the outcome was inactive. Besides, the Activity entry is given as “Non-toxic” in [2] and “Toxic” in data set [9]. Also, the Papp in data set [3] was 7.8 ×10⁻⁶ cm/s. The IC50 in [5] turned out to be 8390 nM. Besides, the result with T67 [6] was Active.
For `COc1cc(/C=C/C(O)=C/C(=O)/C=C/c2ccc(C)cc2)ccc1O`, the outcome in the data set with T67 [1] was inactive. The IC50 at Beta-secretase 1 worked out at 140 nM; in data set [5] it was 2090 nM. Further, in data set [3], the Papp amounted to 8.2 ×10⁻⁶ cm/s. In [4], the Activity result is “Non-toxic”. The outcome with T67 [6] was Active.
Turning to `O=C(/C=C/c1ccc(OCc2ccccc2)cc1)CC(=O)/C=C/c1ccc(OCc2ccccc2)cc1`, the values for the IC50 (at Beta-secretase 1; in [5]) were 6040 nM and 5560 nM, respectively.
